Our source for the Ki values is patent publication US8232406B2, “c-MET protein kinase inhibitors” (Vertex Pharmaceuticals Incorporated, priority 2006, dated 2012).

For orientation: Ki means the dissociation constant of the complex between target and ligand, obtained from inhibition or displacement. High values mean a looser hold on the target, low ones a stronger hold on the target.

Sequence of c-MET (P08581 25-1390): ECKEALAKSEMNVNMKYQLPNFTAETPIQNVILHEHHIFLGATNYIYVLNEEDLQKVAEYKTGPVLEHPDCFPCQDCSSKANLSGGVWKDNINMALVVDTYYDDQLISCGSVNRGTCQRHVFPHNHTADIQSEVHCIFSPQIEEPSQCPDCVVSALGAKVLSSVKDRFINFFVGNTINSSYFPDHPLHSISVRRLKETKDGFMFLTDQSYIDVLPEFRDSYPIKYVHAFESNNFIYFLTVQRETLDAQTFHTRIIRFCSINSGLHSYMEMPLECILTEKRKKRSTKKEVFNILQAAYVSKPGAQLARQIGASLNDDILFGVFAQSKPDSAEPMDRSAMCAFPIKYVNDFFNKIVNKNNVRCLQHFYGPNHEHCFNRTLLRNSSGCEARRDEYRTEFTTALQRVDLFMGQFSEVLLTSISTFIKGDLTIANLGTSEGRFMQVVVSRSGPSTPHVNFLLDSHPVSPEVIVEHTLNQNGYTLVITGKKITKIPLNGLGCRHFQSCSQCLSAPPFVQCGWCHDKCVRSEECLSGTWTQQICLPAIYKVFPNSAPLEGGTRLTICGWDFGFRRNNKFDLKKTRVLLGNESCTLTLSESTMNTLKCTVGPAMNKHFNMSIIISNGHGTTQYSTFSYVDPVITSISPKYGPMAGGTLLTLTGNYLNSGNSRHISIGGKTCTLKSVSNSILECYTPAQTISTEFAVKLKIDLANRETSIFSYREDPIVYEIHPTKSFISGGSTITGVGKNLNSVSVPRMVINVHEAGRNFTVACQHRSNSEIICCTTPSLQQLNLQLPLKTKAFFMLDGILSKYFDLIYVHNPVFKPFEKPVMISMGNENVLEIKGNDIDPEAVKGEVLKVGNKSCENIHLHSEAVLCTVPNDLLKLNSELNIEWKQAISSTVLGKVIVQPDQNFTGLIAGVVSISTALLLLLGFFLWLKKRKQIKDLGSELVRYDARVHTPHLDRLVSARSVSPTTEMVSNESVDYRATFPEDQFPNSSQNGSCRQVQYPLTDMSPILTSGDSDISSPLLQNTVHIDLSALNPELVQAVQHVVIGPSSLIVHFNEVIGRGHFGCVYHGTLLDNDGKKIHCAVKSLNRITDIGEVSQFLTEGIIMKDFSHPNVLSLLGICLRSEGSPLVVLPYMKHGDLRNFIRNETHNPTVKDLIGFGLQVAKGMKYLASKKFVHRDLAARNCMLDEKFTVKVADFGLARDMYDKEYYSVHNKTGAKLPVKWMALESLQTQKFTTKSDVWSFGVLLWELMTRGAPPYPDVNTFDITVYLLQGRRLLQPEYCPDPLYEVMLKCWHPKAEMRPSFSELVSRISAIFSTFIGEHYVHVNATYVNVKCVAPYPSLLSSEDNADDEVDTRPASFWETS

This experiment addresses c-MET (Homo sapiens, UniProt P08581). The experiment is described as follows: Ki determination for the inhibition of c-MET (standard radiometric 33P-ATP kinase assay, polyE4Y substrate). It counts as biochemical. The following applies: 1.0 nM c-Met, 35 μM ATP, 0.5 mg/mL polyE4Y, 20 min; competitive tight-binding fit. How it is done: Ki Determination for the Inhibition of c-MET
Compounds of the invention were screened for their ability to inhibit c-MET kinase activity using a standard radiometric assay. Briefly, in this kinase assay the transfer of the terminal ^33P-phosphate in ^33P-ATP to substrate polyE4Y is interrogated. The assay was carried out in 96-well plates to a final volume of 100 μL per well containing 1.0 nM c-Met, 100 mM HEPES (pH 7.5), 10 mM MgCl2, 25 mM NaCl, 0.01% BSA, 1 mM DTT, 0.5 mg/mL polyE4Y, and 35 μM ATP. Accordingly, compounds of the invention were dissolved in DMSO to make 10 mM initial stock solutions. Serial dilutions in DMSO were then made to obtain the final solutions for the assay. A 1.5 μL aliquot of DMSO or inhibitor in DMSO was added to each well. The reaction was initiated by the addition of ^33P-ATP and polyE4Y (obtained from Sigma). After 20 min, the reaction was quenched with 50 μL of 30% trichloroacetic acid (TCA) containing 4 mM ATP. The reaction mixture was transferred to the 0.66 mm GF filter plates (Corning) and washed three times with 5% TCA. Following the addition of 50 μL of Ultimate Gold™ high efficiency scintillant (Packard Bioscience), the samples were counted in a Packard TopCount NXT Microplate Scintillation and Luminescence Counter (Packard BioScience). The Ki values were calculated using Microsoft Excel Solver macros to fit the data to the kinetic model for competitive tight-binding inhibition.
Regarding `Nc1ncc(-c2cccnc2)nc1-c1nncn1-c1cccc(F)c1F` [I-A-2], the Ki was in the range of 100 to 1000 nM.

`Nc1ncc(-c2ccncc2)nc1-c1nncn1-c1cccc(F)c1F` [I-A-3] registered an inhibition constant (Ki) of 100 to 1000 nM.

`Nc1ncc(-c2ccc(N3CCCC3)nc2)nc1-c1nncn1-c1cccc(F)c1F` [I-A-4] had a Ki of 100 to 1000 nM.

`Nc1ncc(-c2ccc(CN3CCOCC3)cc2)nc1-c1nncn1-c1cccc(F)c1F` [I-A-5]: the inhibition constant (Ki) is at most 100 nM.

Take `CN1CCN(Cc2ccc(-c3cnc(N)c(-c4nncn4-c4cccc(F)c4F)n3)cc2)CC1` [I-A-6]: the Ki is at most 100 nM.

Regarding `CN1CCN(c2ccc(-c3cnc(N)c(-c4nncn4-c4cccc(F)c4F)n3)cc2)CC1` [I-A-7], the Ki was at most 100 nM.

`CN(C)Cc1ccc(-c2cnc(N)c(-c3nncn3-c3cccc(F)c3F)n2)cc1` [I-A-8] came in with an inhibitory constant (Ki) of at most 100 nM.

For `CN1C[C@@H]2C[C@H]1CN2c1ccc(-c2cnc(N)c(-c3nncn3-c3cccc(F)c3F)n2)cc1` [I-A-9], the inhibition constant Ki was at most 100 nM.

As for `Nc1ccc(-c2cnc(N)c(-c3nncn3-c3cccc(F)c3F)n2)cc1` [I-A-10], the Ki was at most 100 nM.

In turn, `CC(=O)Nc1ccc(-c2cnc(N)c(-c3nncn3-c3cccc(F)c3F)n2)cc1` [I-A-11] showed a Ki of at most 100 nM.

With `Nc1cccc(-c2cnc(N)c(-c3nncn3-c3cccc(F)c3F)n2)c1` [I-A-12], the inhibition constant Ki is at most 100 nM.

Compound `Nc1ncc(-c2cnc3[nH]ccc3c2)nc1-c1nncn1-c1cccc(F)c1F` [I-A-13] returned a Ki of at most 100 nM.

Regarding `Nc1ncc(-c2ccncc2)nc1-c1nnc(O)n1-c1cccc(F)c1F` [I-A-15], the Ki lay within 100 to 1000 nM.

`Nc1ncc(-c2ccc(CN3CCOCC3)cc2)nc1-c1nnc(O)n1-c1cccc(F)c1F` [I-A-16]: the Ki fell in the range of 100 to 1000 nM.

The compound `CN1CCN(c2ccc(-c3cnc(N)c(-c4nnc(O)n4-c4cccc(F)c4F)n3)cc2)CC1` [I-A-17] came in with a Ki of 100 to 1000 nM.

Compound `Nc1ncc(-c2ccc(N3CCCC3)nc2)nc1-c1nnc(O)n1-c1cccc(F)c1F` [I-A-18] gave an inhibitory constant (Ki) of 100 to 1000 nM.

`CN1CCN(c2ccc(-c3cnc(N)c(-c4nnnn4-c4cccc(F)c4F)c3)cc2)CC1` [I-A-19] came in with an inhibition constant (Ki) of at most 100 nM.

The compound `Nc1ncc(-c2cccnc2)cc1-c1nnnn1-c1cccc(F)c1F` [I-A-20] displayed an inhibition constant Ki of 100 to 1000 nM.

In the case of `CC(=O)c1cccc(-c2cnc(N)c(-c3nncn3-c3cccc(F)c3F)n2)c1` [I-A-29], the inhibition constant (Ki) lay in the range of 100 to 1000 nM.

Compound `N#Cc1cccc(-c2cnc(N)c(-c3nncn3-c3cccc(F)c3F)n2)c1` [I-A-30] returned an inhibition constant (Ki) of 100 to 1000 nM.

For `CCOc1cccc(-c2cnc(N)c(-c3nncn3-c3cccc(F)c3F)n2)c1` [I-A-31], the Ki is 100 to 1000 nM.

As for `CS(=O)(=O)c1ccc(-c2cnc(N)c(-c3nncn3-c3cccc(F)c3F)n2)cc1` [I-A-32], the Ki was at most 100 nM.

On to `Nc1ncc(-c2cnc3ccccc3c2)nc1-c1nncn1-c1cccc(F)c1F` [I-A-33], for which the inhibition constant Ki lay in the range of 100 to 1000 nM.

For the compound `Nc1ncc(-c2cccnc2)nc1-c1nncn1-c1cc(Cl)ccc1F` [I-A-34], the Ki is 100 to 1000 nM.

The compound `Nc1ncc(-c2cccnc2)cc1-c1nncn1-c1cccc(F)c1F` [I-A-39] had an inhibitory constant (Ki) of 100 to 1000 nM.

Turning to `Nc1ncc(-c2ccc(N3CCCC3)nc2)cc1-c1nncn1-c1cccc(F)c1F` [I-A-40], the inhibitory constant (Ki) is 100 to 1000 nM.

In the case of `CN1CCN(c2ccc(-c3cnc(N)c(-c4nncn4-c4cccc(F)c4F)c3)cc2)CC1` [I-A-41], the inhibition constant (Ki) lay in the range of 100 to 1000 nM.

Compound `CN1CCN(Cc2ccc(-c3cnc(N)c(-c4nnc(O)n4-c4cccc(F)c4F)c3)cc2)CC1` [I-A-42] showed an inhibitory constant (Ki) of 100 to 1000 nM.

In turn, `CN1CCN(c2ccc(-c3cnc(N)c(-c4nnnn4-c4cccc(F)c4F)n3)cc2)CC1` [I-A-46] returned a Ki of at most 100 nM.

As for `CN(C)Cc1ccc(-c2cnc(N)c(-c3nnnn3-c3cccc(F)c3F)n2)cc1` [I-A-48], the Ki is at most 100 nM.

The compound `CN1CCN(Cc2ccc(-c3cnc(N)c(-c4nnnn4-c4cccc(F)c4F)n3)cc2)CC1` [I-A-50] returned an inhibition constant (Ki) of at most 100 nM.

Compound `Nc1ncc(-c2ccc(CN3CCOCC3)cc2)nc1-c1nnnn1-c1cccc(F)c1F` [I-A-51] came in with an inhibitory constant (Ki) of at most 100 nM.

Take `Nc1nc2cc(F)c(-c3cnc(N)c(-c4nnnn4-c4cccc(F)c4F)n3)cc2[nH]1` [I-A-52]: the inhibition constant Ki is at most 100 nM.

Take `CCNC(=O)Nc1nc2cc(F)c(-c3cnc(N)c(-c4nnnn4-c4cccc(F)c4F)n3)cc2[nH]1` [I-A-53]: the inhibition constant (Ki) was in the range of 100 to 1000 nM.

Turning to `COc1cc2nc(N)[nH]c2cc1-c1cnc(N)c(-c2nnnn2-c2cccc(F)c2F)n1` [I-A-54], the Ki is at most 100 nM.

`CCNC(=O)Nc1nc2cc(OC)c(-c3cnc(N)c(-c4nnnn4-c4cccc(F)c4F)n3)cc2[nH]1` [I-A-55]: the Ki is 100 to 1000 nM.

In turn, `Nc1nc2cc(F)c(-c3cnc(N)c(-c4nncn4-c4cccc(F)c4F)n3)cc2[nH]1` [I-A-56] gave an inhibitory constant (Ki) of at most 100 nM.

Take `CCNC(=O)Nc1nc2cc(F)c(-c3cnc(N)c(-c4nncn4-c4cccc(F)c4F)n3)cc2[nH]1` [I-A-57]: the Ki is at most 100 nM.

Compound `CN1CCN(Cc2ccc(-c3cnc(N)c(-c4nnnn4-c4cccc(F)c4F)c3)cc2)CC1` [I-A-62, 3-(1-(2,3-Difluorophenyl)-1H-tetrazol-5-yl)-5-(4-((4-methylpiperazin-1-yl)methyl)phenyl)pyridin-2-amine] gave an inhibition constant Ki of at most 100 nM.

The compound `CN(C)Cc1ccc(-c2cnc(N)c(-c3nnnn3-c3cccc(F)c3F)c2)cc1` [I-A-63] came in with a Ki of at most 100 nM.

Turning to `Nc1ncc(-c2ccc(N3CCCC3)nc2)cc1-c1nnnn1-c1cccc(F)c1F` [I-A-64], the Ki was at most 100 nM.

`Nc1ncc(-c2cccnc2)cc1-c1nccn1-c1cccc(Cl)c1Cl` [I-A-65] returned an inhibitory constant (Ki) of at most 100 nM.

`CCN(CC)Cc1ccc(-c2cnc(N)c(-c3nnnn3-c3cccc(F)c3F)c2)cc1` [I-A-66] displayed an inhibition constant (Ki) of at most 100 nM.

For the compound `Nc1ncc(-c2ccc(CN3CCCC3)cc2)cc1-c1nnnn1-c1cccc(F)c1F` [I-A-67], the Ki is at most 100 nM.

`Nc1cccc(-c2cnc(N)c(-c3nncn3-c3cccc(Cl)c3Cl)c2)c1` [I-A-68] gave a Ki of 100 to 1000 nM.

`COc1ccc(-c2cnc(N)c(-c3nncn3-c3cccc(Cl)c3Cl)c2)cc1` [I-A-69]: the Ki lay in the range of 100 to 1000 nM.

Compound `Nc1ncc(-c2ccsc2)cc1-c1nncn1-c1cccc(Cl)c1Cl` [I-A-70] showed an inhibition constant Ki of 100 to 1000 nM.

In turn, `Nc1ncc(-c2ccncc2)cc1-c1nncn1-c1cccc(Cl)c1Cl` [I-A-71] yielded a Ki of 100 to 1000 nM.

`CN(C)c1ccc(-c2cnc(N)c(-c3nncn3-c3cccc(Cl)c3Cl)c2)cc1` [I-A-72] showed an inhibition constant (Ki) of 100 to 1000 nM.

Take `CC(=O)Nc1cccc(-c2cnc(N)c(-c3nncn3-c3cccc(Cl)c3Cl)c2)c1` [I-A-73]: the Ki was in the range of 100 to 1000 nM.

The compound `Nc1ncc(-c2ccccc2)cc1-c1nncn1-c1cccc(Cl)c1Cl` [I-A-74] registered an inhibition constant (Ki) of 100 to 1000 nM.

Compound `Nc1ncc(-c2ccccc2O)cc1-c1nncn1-c1cccc(Cl)c1Cl` [I-A-75] showed an inhibition constant Ki of 100 to 1000 nM.

For the compound `CC(=O)Nc1ccc(-c2cnc(N)c(-c3nncn3-c3cccc(Cl)c3Cl)c2)cc1` [I-A-76], the Ki lay in the range of 100 to 1000 nM.

In turn, `COc1ccc(-c2cnc(N)c(-c3nncn3-c3cccc(Cl)c3Cl)c2)cc1OC` [I-A-77] had a Ki of 100 to 1000 nM.

Compound `Nc1ncc(-c2ccc(CO)cc2)cc1-c1nncn1-c1cccc(Cl)c1Cl` [I-A-78] came in with a Ki of 100 to 1000 nM.

The compound `CN(C)Cc1ccc(-c2cnc(N)c(-c3nnnn3-c3cccc(Cl)c3Cl)c2)cc1` [I-A-79] yielded a Ki of at most 100 nM.

Compound `CC(=O)Nc1ccc(-c2cnc(N)c(-c3nnnn3-c3cccc(Cl)c3Cl)c2)cc1` [I-A-81] yielded an inhibition constant Ki of at most 100 nM.

Turning to `Nc1ncc(-c2ccc(N3CCCC3)nc2)cc1-c1nnnn1-c1cccc(Cl)c1Cl` [I-A-82], the inhibition constant (Ki) is 100 to 1000 nM.

Regarding `Nc1ncc(-c2cccnc2)cc1-c1nnnn1-c1cccc(Cl)c1Cl` [I-A-83], the Ki fell in the range of 100 to 1000 nM.

Take `Nc1ncc(-c2ccncc2)cc1-c1nnnn1-c1cccc(Cl)c1Cl` [I-A-84]: the inhibition constant Ki is 100 to 1000 nM.

As for `CN1CCN(c2ccc(-c3cnc(N)c(-c4nnnn4-c4cccc(Cl)c4Cl)c3)cc2)CC1` [I-A-85], the inhibition constant (Ki) is at most 100 nM.

In turn, `Nc1ccc(-c2cnc(N)c(-c3nnnn3-c3cccc(Cl)c3Cl)c2)cc1` [I-A-86] came in with a Ki of at most 100 nM.

Compound `NCc1cccc(-c2cnc(N)c(-c3nnnn3-c3cccc(Cl)c3Cl)c2)c1` [I-A-87] came in with a Ki of at most 100 nM.

Turning to `CC(=O)c1ccc(-c2cnc(N)c(-c3nnnn3-c3cccc(Cl)c3Cl)c2)cc1` [I-A-88], the Ki was 100 to 1000 nM.

With `N#Cc1ccc(-c2cnc(N)c(-c3nnnn3-c3cccc(Cl)c3Cl)c2)cc1` [I-A-89], the Ki fell in the range of 100 to 1000 nM.

Regarding `Nc1ncc(-c2ccc(CO)cc2)cc1-c1nnnn1-c1cccc(Cl)c1Cl` [I-A-90], the Ki is at most 100 nM.

In turn, `Nc1ncc(-c2cnc3[nH]ccc3c2)cc1-c1nnnn1-c1cccc(Cl)c1Cl` [I-A-92] yielded a Ki of at most 100 nM.

The compound `CCNC(=O)Nc1nc2cc(-c3cnc(N)c(-c4nnnn4-c4cccc(Cl)c4Cl)c3)c(F)cc2[nH]1` [I-A-93] had a Ki of 100 to 1000 nM.

The compound `Nc1ncc(-c2ccc(CN3CCCC3)cc2)cc1-c1nnnn1-c1cccc(Cl)c1Cl` [I-A-94] showed a Ki of at most 100 nM.

Consider `CN(C)CCCN(C)Cc1ccc(-c2cnc(N)c(-c3nnnn3-c3cccc(Cl)c3Cl)c2)cc1` [I-A-95], for which the Ki is at most 100 nM.
